Experimental data reported in patent US8962825B2, “Hydroxamates as inhibitors of histone deacetylase” (GlaxoSmithKline Intellectual Property Development Limited, priority 2006, dated 2015).

How the values were obtained:
[1] = molecular target: T1, histone deacetylase activity (HeLa nuclear extract); assay: Histone deacetylase activity (Biomol Fluor de Lys HDAC fluorescent activity assay); assay type: biochemical; conditions: Fluor de Lys substrate
T1 construct: Histone deacetylase activity from crude nuclear extract derived from HeLa cells was used for screening
Procedure: The ability of compounds to inhibit histone deacetylase activities was measured using the commercially available HDAC fluorescent activity assay from Biomol. In brief, the Fluor de Lys™ substrate, a lysine with an epsilon-amino acetylation, is incubated with the source of histone deacetylase activity (HeLa nuclear extract) in the presence or absence of inhibitor. Deacetylation of the substrate sensitises the substrate to Fluor de Lys™ developer, which generates a fluorophore. Thus, incubation of the substrate with a source of HDAC activity results in an increase in signal that is diminished in the presence of an HDAC inhibitor.
Data are expressed as a percentage of the control, measured in the absence of inhibitor, with background signal being subtracted from all samples, as follows: % activity=[(S^i−B)/(S^o−B)]×100 where S^i is the signal in the presence of substrate, enzyme and inhibitor, S^o is the signal in the presence of substrate, enzyme and the vehicle in which the inhibitor is dissolved, and B is the background signal measured in the absence of enzyme.
(§1) IC50 values were determined by non-linear regression analysis, after fitting the results of eight data points to the equation for sigmoidal dose response with variable slope (% activity against log concentration of Compound), using Graphpad Prism software.
Histone deacetylase activity from crude nuclear extract derived from HeLa cells was used for screening. The preparation, purchased from 4C (Seneffe, Belgium), was prepared from HeLa cells harvested whilst in exponential growth phase. The nuclear extract was prepared according to the methodology described by J. D. Dignam, Nucl. Acid. Res., 1983, 11, 1475-1489, snap frozen in liquid nitrogen and stored at −80° C. The final buffer composition was 20 mM Hepes, 100 mM KCl, 0.2 mM EDTA, 0.5 mM DTT, 0.2 mM PMSF and 20% (v/v) glycerol.

HUT cells = assay: HUT cell inhibition assay (WST-1 cell viability); assay type: cell-based; conditions: 72-96 h
Procedure: (§2) Cancer cell lines (U937 and HUT) growing in log phase were harvested and seeded at 1000-2000 cells/well (100 μl final volume) into 96-well tissue culture plates. Following 24 h of growth cells were treated with Compound. Plates were then re-incubated for a further 72-96 h before a WST-1 cell viability assay was conducted according to the suppliers (Roche Applied Science) instructions.
(§3) Data were expressed as a percentage inhibition of the control, measured in the absence of inhibitor, as follows: % inhibition=100−[(S^i/S^o)×100] where S^i is the signal in the presence of inhibitor and S^o is the signal in the presence of DMSO.
(§4) Dose response curves were generated from 8 concentrations (top final concentration 10 μM, with 3-fold dilutions), using 6 replicates.
(§5) IC50 values were determined by non-linear regression analysis, after fitting the results to the equation for sigmoidal dose response with variable slope (% activity against log concentration of Compound), using Graphpad Prism software.

HeLa cells = assay: HeLa cell inhibition assay (sulphorhodamine B cell viability); assay type: cell-based; conditions: Homo sapiens, 72 h, SRB
Procedure: HeLa cells growing in log phase were harvested and seeded at 1000 cells/well (200 μl final volume) into 96-well tissue culture plates. Following 24 h of cell growth cells were treated with Compounds (final concentration of 20 μM). Plates were then re-incubated for a further 72 h before a sulphorhodamine B (SRB) cell viability assay was conducted according to the methodology described by Skehan et al, J. Natl. Canc. Inst., 1990, 82, 1107-1112.
Data were expressed as a percentage inhibition of the control, measured in the absence of inhibitor, as follows:— % inhibition=100−[(S^i/S^o)×100] where S^i is the signal in the presence of inhibitor and S^o is the signal in the presence of DMSO.
as §1

U937 cells = assay: U937 cell inhibition assay (WST-1 cell viability); assay type: cell-based; conditions: Homo sapiens, U-937, 72-96 h
Procedure: as §2, §3, §4, §5

| SMILES | IC50 [1] | IC50 (HUT cells) | IC50 (HeLa cells) | IC50 (U937 cells) |
| --- | --- | --- | --- | --- |
| O=C(NO)c1cnc(N2CCC(NCc3ccc(CN[C@H](C(=O)OC4CCCC4)c4ccccc4)cc3)CC2)nc1 [Example 32] | 101 to 1000 nM | – | – | – |
| CC(C)C[C@H](NC1CCN(c2ncc(C(=O)NO)cn2)CC1)C(=O)O [Example 2, N-{1-[5-(hydroxycarbamoyl)pyrimidin-2-yl]piperidin-4-yl}-L-leucine] | 101 to 1000 nM | – | – | – |
| O=C(NO)c1cnc(N2CCC(CN[C@@H](CO)C(=O)OC3CCCC3)CC2)nc1 [Example 24] | – | < 330 nM | 331 to 3300 nM | < 330 nM |
| CC(C)C[C@H](NC1CCN(c2ncc(C(=O)NO)cn2)CC1)C(=O)OC1CCCC1 [Example 1, Cyclopentyl N-{1-[5-(hydroxycarbamoyl)pyrimidin-2-yl]piperidin-4-yl}-L-leucinate] | 101 to 1000 nM | 331 to 3300 nM | > 3300 nM | < 330 nM |
| CC(C)C[C@H](NC1CCN(c2ccc(C(=O)NO)cc2)CC1)C(=O)O [Example 49, N-{1-[4-(hydroxycarbamoyl)phenyl]piperidin-4-yl}-L-leucine] | > 1000 nM | – | – | – |
| O=C(NO)c1cnc(N2CCC(NCc3ccc(CN[C@H](C(=O)OC4CCCC4)c4ccccc4)cc3)CC2)nc1 [Example 34] | < 100 nM | – | – | – |
| CC(C)(C)OC[C@H](NCc1ccc(CNCC2CCN(c3ncc(C(=O)NO)cn3)CC2)cc1)C(=O)OC1CCCC1 [Example 40] | – | < 330 nM | 331 to 3300 nM | < 330 nM |
| O=C(NO)c1cnc(N2CCC(CNCC3CCC(CN[C@H](C(=O)OC4CCCC4)C4CCCCC4)CC3)CC2)nc1 (stereo partly drawn) [Example 46, Cyclopentyl (2S)-cyclohexyl{[(4-{[({1-[5-(hydroxycarbamoyl)pyrimidin-2-yl]piperidin-4-yl}methyl)amino]methyl}cyclohexyl)methyl]amino}acetate] | 101 to 1000 nM | 331 to 3300 nM | – | 331 to 3300 nM |
| CC(C)C[C@H](NCc1ccc(CNC2CCN(c3ncc(C(=O)NO)cn3)CC2)cc1)C(=O)OC1CCCC1 [Example 27, Cyclopentyl N-{4-[({1-[5-(hydroxycarbamoyl)pyrimidin-2-yl]piperidin-4-yl}amino)methyl]benzyl}-L-leucinate] | < 100 nM | < 330 nM | 331 to 3300 nM | < 330 nM |
| O=C(NO)c1ccc(N2CCC(CNCC3CCC(CN[C@H](C(=O)OC4CCCC4)C4CCCCC4)CC3)CC2)cc1 (stereo partly drawn) [Example 54, cyclopentyl (2S)-cyclohexyl{[(4-{[({1-[4-(hydroxycarbamoyl)phenyl]piperidin-4-yl}methyl)amino]methyl}cyclohexyl)methyl]amino}acetate] | > 1000 nM | 331 to 3300 nM | – | 331 to 3300 nM |
| O=C(NO)c1ccc(N2CCC(CN[C@H](C(=O)O)C3CCCCC3)CC2)cc1 [Example 51, (2S)-cyclohexyl[({1-[4-(hydroxycarbamoyl)phenyl]piperidin-4-yl}methyl)amino]acetic acid] | > 1000 nM | – | – | – |
| O=C(NO)c1ccc(N2CCC(CNCC3CCC(CN[C@H](C(=O)O)C4CCCCC4)CC3)CC2)cc1 (stereo partly drawn) [Example 55, (2S)-cyclohexyl{[(4-{[({1-[4-(hydroxycarbamoyl)phenyl]piperidin-4-yl}methyl)amino]methyl}cyclohexyl)methyl]amino}acetic acid] | > 1000 nM | – | – | – |
| O=C(NO)c1cnc(N2CCC(CN[C@H](C(=O)OC3CCCC3)c3ccccc3)CC2)nc1 [Example 20] | – | 331 to 3300 nM | 331 to 3300 nM | < 330 nM |
| CC(C)C[C@H](NCC1CCN(c2ncc(C(=O)NO)cn2)CC1)C(=O)OC1CCCC1 [Example 16] | – | < 330 nM | 331 to 3300 nM | < 330 nM |
| O=C(NO)c1cnc(N2CCC(CNCC3CCC(CN[C@H](C(=O)O)C4CCCCC4)CC3)CC2)nc1 (stereo partly drawn) [Example 47, (2S)-cyclohexyl{[(4-{[({1-[5-(hydroxycarbamoyl)pyrimidin-2-yl]piperidin-4-yl}methyl)amino]methyl}cyclohexyl)methyl]amino}acetic acid] | < 100 nM | – | – | – |
| O=C(NO)c1cnc(N2CCC(CN[C@H](C(=O)O)C3CCCCC3)CC2)nc1 [Example 19, (2S)-cyclohexyl[({1-[5-(hydroxycarbamoyl)pyrimidin-2-yl]piperidin-4-yl}methyl)amino]acetic acid] | < 100 nM | – | – | – |
| O=C(NO)c1cnc(N2CCC(NCc3ccc(CN[C@H](C(=O)OC4CCCC4)c4ccccc4)cc3)CC2)nc1 [Example 30] | < 100 nM | – | – | – |
| CC(C)C[C@H](NC1CCN(c2ccc(C(=O)NO)cc2)CC1)C(=O)OC1CCCC1 [Example 48, Cyclopentyl N-{1-[4-(hydroxycarbamoyl)phenyl]piperidin-4-yl}-L-leucinate] | > 1000 nM | > 3300 nM | – | 331 to 3300 nM |
| CC(C)C[C@H](NCc1ccc(CNCC2CCN(c3ncc(C(=O)NO)cn3)CC2)cc1)C(=O)OC1CCCC1 [Example 36] | – | < 330 nM | < 330 nM | < 330 nM |
| O=C(NO)c1cnc(N2CCC(N[C@@H](CO)C(=O)OC3CCCC3)CC2)nc1 [Example 9] | – | 331 to 3300 nM | > 3300 nM | 331 to 3300 nM |
| O=C(NO)c1cnc(N2CCC(CNCc3ccc(CN[C@H](C(=O)OC4CCCC4)c4ccccc4)cc3)CC2)nc1 [Example 42] | – | < 330 nM | < 330 nM | < 330 nM |
| O=C(NO)c1ccc(N2CCC(CN[C@H](C(=O)OC3CCCC3)C3CCCCC3)CC2)cc1 [Example 50, Cyclopentyl (2S)-cyclohexyl[({1-[4-(hydroxycarbamoyl)phenyl]piperidin-4-yl}methyl)amino]acetate] | > 1000 nM | > 3300 nM | – | > 3300 nM |
| CC(C)(C)OCC(NCC1C2CN(c3ncc(C(=O)NO)cn3)CC12)C(=O)OC1CCCC1 (centres unmarked) [Example 12] | – | 331 to 3300 nM | 331 to 3300 nM | < 330 nM |
| O=C(NO)c1cnc(N2CCC(CN[C@H](C(=O)OC3CCCC3)c3cccc4ccccc34)CC2)nc1 [Example 26] | – | 331 to 3300 nM | > 3300 nM | 331 to 3300 nM |
| CC(C)(C)OC[C@H](NCC1CCN(c2ncc(C(=O)NO)cn2)CC1)C(=O)OC1CCCC1 [Example 22] | – | < 330 nM | 331 to 3300 nM | < 330 nM |
| O=C(NO)c1cnc(N2CCC(CNCc3ccc(CN[C@H](C(=O)O)C4CCCCC4)cc3)CC2)nc1 [Example 39, (2S)-cyclohexyl[(4-{[({1-[5-(hydroxycarbamoyl)pyrimidin-2-yl]piperidin-4-yl}methyl)amino]methyl}benzyl)amino]acetic acid] | < 100 nM | – | – | – |
| O=C(NO)c1cnc(N2CCC(CNCc3ccc(CN[C@@H](CO)C(=O)OC4CCCC4)cc3)CC2)nc1 [Example 44] | – | < 330 nM | 331 to 3300 nM | < 330 nM |
| O=C(NO)c1ccc(N2CCC(CNCc3ccc(CN[C@H](C(=O)OC4CCCC4)C4CCCCC4)cc3)CC2)cc1 [Example 52, Cyclopentyl (2S)-cyclohexyl[(4-{[({1-[4-(hydroxycarbamoyl)phenyl]piperidin-4-yl}methyl)amino]methyl}benzyl)amino]acetate] | > 1000 nM | 331 to 3300 nM | – | 331 to 3300 nM |
| O=C(NO)c1cnc(N2CC3C(CN[C@H](C(=O)O)C4CCCCC4)C3C2)nc1 (stereo partly drawn) [Example 15, (2S)-cyclohexyl[({3-[5-(hydroxycarbamoyl)pyrimidin-2-yl]-3-azabicyclo[3.1.0]hex-6-yl}methyl)amino]acetic acid] | 101 to 1000 nM | – | – | – |
| CC(C)C[C@H](NCc1ccc(CNC2CCN(c3ncc(C(=O)NO)cn3)CC2)cc1)C(=O)O [Example 28, N-{-4-[({1-[5-(hydroxycarbamoyl)pyrimidin-2-yl]piperidin-4-yl}amino)methyl]benzyl}-L-leucine] | 101 to 1000 nM | – | – | – |
